Source: PMC8741257, “Identification of novel non-toxic and anti-angiogenic α-fluorinated chalcones as potent colchicine binding site inhibitors” (Journal of Enzyme Inhibition and Medicinal Chemistry, 2022)

Key:
[1] = test system: 293 T (human embryonic kidney cell); assay: Growth inhibition of normal human cells; type: cell-based; conditions: HEK-293T, triplicate, mean ± SD
Description: (§1) The effect of compound 4c on three types of normal human cell lines including LO2 (human hepatocyte cells), 293 T (human embryonic kidney cell) and THP-1-derived macrophages was then determined.

[2] = test system: THP-1-derived macrophages; assay: Growth inhibition of normal human cells; type: cell-based; conditions: Macrophage, triplicate, mean ± SD
Description: as §1

[3] = test system: LO2 (human hepatocyte cells); assay: Growth inhibition of normal human cells; type: cell-based; conditions: triplicate, mean ± SD
Description: as §1

[4] = test system: HUVECs (human umbilical vein endothelial cells); assay: Transwell cell invasion assay; type: cell-based; conditions: 2.5, 5 and 10 µM, 24 h
Description: HUVECs (human umbilical vein endothelial cells) grown on Matrigel were commonly used as a tube formation model for studying the physiological and pathological processes of the vascular system in vitro, and a widely studied human endothelial cell type in angiogenesis. The effect of 4c on endothelial cell migration was assessed by using HUVECs. Standardised wounds were made in confluent monolayers of HUVECs and then exposed to compound 4c at 2.5, 5 and 10 µM for 48 h. […] We further evaluated the capacity of 4 s on endothelial cell invasion using a Transwell assay.
Matrix gel was thawed overnight at 4 °C. […] Then the cells were washed three times with PBS and fixed cells by 4% paraformaldehyde for 30 min. Subsequently, 0.2% crystal violet solution was added, stained for 30 min, and the invasion of cells was observed under the microscope. Transwell was placed into a 24-well plate, 35% acetic acid (300 μL) was added to the upper chamber of the chamber, and after acetic acid completely entered the lower chamber, 100 μL of acetic acid from the lower chamber was aspirated into a 96-well plate, and three replicate wells of each concentration were shaken for 10 min, and the absorbance was measured at 560 nm with an enzyme marker.

[5] = test system: ROS in MGC-803 cells; assay: Intracellular ROS generation (DCFH-DA, flow cytometry); type: cell-based, human; conditions: 72 nM, 48 h, control 0.17%
Description: It is now generally accepted that mitochondrial dysfunction is the main source of elevated ROS levels, accompanied by changes in mitochondrial membrane potential and activation of downstream Caspases. To further evaluate the alterations of intracellular ROS levels after cells exposed to 4c, flow cytometry was analysed with 2′,7′-Dichlorodihydrofluorescein diacetate (DCFH-DA) as fluorescent probe. As shown in Figure 7(B), 4c induced intracellular ROS generation in a dose-dependent manner. […] According to above-mentioned results, we can deduce that 4c induced cell apoptosis through a variety of ways including the disruption of the mitochondrial membrane potential, accumulation of intracellular ROS level and regulation of apoptosis-related proteins expression in cancer cells.
Load the probe and dilute DCFH-DA with serum-free culture medium at 1:1000 to a final concentration of […]. Spread the cultured cells in a 6-well plate with about 1.5 × 10^5 cells per well and incubate overnight at 37 °C. After 48 h of incubation with 4c (18, 36, 72nΜ) the cell culture medium was removed and diluted DCFH-DA was added and incubated for 20 min at 37 °C in an incubator, and the mixture was inverted every 3–5 min. […] Add 200 μL of PBS for resuspension, place on ice, and subsequently assay by flow cytometry using standard procedures.

[6] = test system: human normal cells (LO2, 293T, macrophage) versus MGC-803; assay: Selectivity of growth inhibition, human normal cells versus MGC-803; type: cell-based
Description: as §1

[7] = test system: U937 (human leukaemia cells); assay: Antiproliferative activity (CCK-8 assay); type: cell-based; conditions: U-937, mean ± SD, three separated experiments, 72 h
Description: (§2) MCF-7, MGC-803, Hela and HepG-2 cell lines were cultured in a base medium (90% DMEM and 10% FBS), A549 and U937 were cultured in a base medium (90% PRMI-1640 and 10% FBS) at 37 °C, 5% CO2 and a saturated humidity atmosphere. All the mediums were supplemented with 10% FBS and 1% […]/streptomycin (all cells were purchased from Shanghai Institutes for Biological Sciences, Chinese Academy of Sciences, Shanghai, China).
MGC-803 cells were collected and seeded into 96 well plates at a density of 8000/well. The mediums containing drugs and cell suspension were added into the well. The cells were incubated in 5% CO2 incubator at 37 °C for 72 h. Each well was added 10 µL CCK8 solution, and the incubation time was 3–4 h. The absorbance value at 450 nm was measured by microplate reader. Data are calculated with GraphPad Prism5 software.

[8] = test system: HepG2 (human liver cancer cells); assay: Antiproliferative activity (SRB assay); type: cell-based; conditions: mean ± SD, three separated experiments, 72 h
Description: as §2
(§3) A549, MGC-803, MCF-7, HepG2 and Hela cells were seeded at the appropriate cell line density (3 × 10^3 to 4 × 10^3 cells/well). The cells were then incubated at 37 °C for 24 h in a humidified 5%CO2 in 96-well plates prior to experiments. After a further 72 h of incubation, cell proliferation was quantified with SRB ([…]) to determine the number of surviving cells. The absorbance at 560 nm was measured by microplate. The experiment was repeated three times, and the data were listed in the form of mean and standard deviation.

[9] = test system: Hela (human cervical cancer cells); assay: Antiproliferative activity (SRB assay); type: cell-based; conditions: mean ± SD, three separated experiments, 72 h
Description: as §2, §3

[10] = test system: A549 (human non-small cell lung cancer); assay: Antiproliferative activity (SRB assay); type: cell-based; conditions: mean ± SD, three separated experiments, 72 h
Description: as §2, §3

[11] = test system: MCF-7 (human breast cancer cells); assay: Antiproliferative activity (SRB assay); type: cell-based; conditions: MCF7, mean ± SD, three separated experiments, 72 h
Description: as §2, §3

[12] = test system: microtubule network of MGC-803 cells; assay: Immunofluorescent staining of the cellular microtubule network; type: cell-based, human; conditions: 18, 36, and 72 nM
Description: Since tubulin-microtubule system plays a crucial role in mechanical solidity, cell motility and mitosis, an immunofluorescent staining assay was further carried out in MGC-803 cells to evaluate the inhibitory effects of 4c on microtubule cytoskeleton. […] Upon treatment with higher concentrations of 4c, the dispersed tubulin dimers were even more obvious and there is no tubular structure left.
MGC-803 cells (3 × 10^4 cells/well) were seeded into 6 well-plates and then treated with vehicle control 0.1% DMSO and 4c (18, 36, 72nΜ). The cells were rinsed twice with PBS and fixed by 4% paraformaldehyde for 20 min. Subsequently, microtubule detection was performed using a fluorescent antibody against α-tubulin in 5% BSA and incubated for 5 ∼ 6 h at room temperature. To stain cell nucleus, crystals were incubated with Hoechst for 10 min. After washing with PBST to remove redundant stain, the samples were visualised under an Olympus laser scanning confocal microscope.

[13] = test system: tubulin; assay: Tubulin polymerisation assay in vitro; type: biochemical; conditions: 6 µM of 4c; colchicine 4 µM as positive control; fluorescence intensity
Description: The microtubule kinetic experiments were performed with 4 µM of colchicine as a positive control and 6 µM of 4c as the experimental group according to the method originally described by J. M. Andreu et al. with some modifications. Purified and unpolymerised tubulin was incubated with the tested compounds and the increased tendency of fluorescence intensity shown in control samples was obviously slowed down.

Structure (SMILES): COc1cc(C(=O)/C(F)=C/c2c[nH]c3cc(Br)ccc23)cc(OC)c1OC [4c, (Z)-3–(6-bromo-1H-indol-3-yl)-2-fluoro-1–(3,4,5-trimethoxyphenyl)prop-2-en-1-one]
- IC50 [1]: 1050 ± 220 nM
- IC50 [2]: 1210 ± 17 nM
- IC50 [3]: 680 ± 220 nM
- number of cells invaded into lower chamber [4]: gradually decreased in a dose-dependent manner
- FITC-A+ (ratio of DCF positive cells) [5]: 93.6%
- selectivity ratio towards MGC-803 cells and macrophage cells [6]: up to 21.2 folds
- IC50 [7]: 25 ± 1 nM
- IC50 [8]: > 5000 nM
- IC50 [9]: 25 ± 1 nM
- IC50 [10]: 202 ± 12 nM
- IC50 [11]: 254 ± 37 nM
- Effect on cellular microtubule network [12]: remarkable disruption of microtubule reticular network
- Effect on tubulin polymerisation in vitro [13]: exhibited a similar action to that of colchicine
